Key:
[1] = test system: TRIM37; assay: Immunoblotting of TRIM37 in treated cells; format: cell-based, human
Protocol: Immunoblotting. Cell extracts were prepared by lysing cell pellet in RIPA buffer supplemented with 1 mM sodium ortho-vanadate and 10 mM PMSF. To prepare protein extract from mouse tissue, it was homogenized in lysis buffer (1% SDS, 1 mM sodium ortho-vanadate, 10 mM Tris pH 7.4 and protease inhibitor). Immunoblots were probed using antibodies against TRIM37 (Abcam), PARP (Cell Signaling Technology), p21 (Cell Signaling Technology), γ-ph-H2AX (Cell Signaling Technology), RAD51C (Invitrogen), ph-ATM (Cell Signaling Technology), ph-STAT1 (Cell Signaling Technology), ph-STAT3 (Cell Signaling Technology), ph-STAT5 (Cell Signaling Technology), BIM (Abcam), FOLR1 (R&D) and α-tubulin (Invitrogen).

[2] = test system: HCC1806 tumors; assay: NSG tumor xenograft, Dox-induced TRIM37 upregulation; format: in vivo; conditions: mice bearing HCC1806RR subcutaneous tumors, 2 mg/kg Dox
Protocol: (§1) NSG tumor xenograft studies. All animal procedures were conducted under the accordance of the University of Virginia IACUC with approved protocol (4112 and 4222). For different cell lines, weight and aged matched female NSG mice were injected subcutaneously with 2×10^6 TNBC cells in their right flank with indicated cell line in matrigel. 2×10^6 HCC1806RR or 231-2b were injected in 100 µl volume. For Dox-induced TRIM37 upregulation studies in tumor, mice bearing ~200 mm^3 HCC1806 tumors weight matched animals were randomly assigned into groups and injected with 2 mg/kg Dox. Tumors were harvested 24 hrs. following Dox treatment. For smart nanoparticles efficiency in vivo, mice bearing ~200 mm^3 231-2b tumors weight matched animals were randomly assigned into groups and injected with control or smart nanoparticles. At the endpoint, RNA and protein lysates were prepared from isolated tumors and analyzed by western blotting.

[3] = test system: 231-2b tumors; assay: NSG tumor xenograft, smart nanoparticles with or without Dox; format: in vivo, NSG mice; conditions: 231-2b xenografts; 1.2 mg/kg nanoparticles intra-tumor every three days for 18 days; 2 mg/kg Dox two doses
Protocol: as §1
To investigate the outcome of TRIM37 targeting in clinical settings, we challenged 231-2b-derived xenografts with smart nanoparticles in combination with chemotherapy. When tumors reached the size of ~50 mm^3, animals received two doses of either 2 mg/kg Dox or vehicle (FIG. 7J). Furthermore, within each group, animals were randomly administered 1.2 mg/kg (~4×10^7nanoparticles) of smart or control nanoparticles intra-tumor every three days for 18 days (FIG. 7J).

## COc1cccc2c1C(=O)c1c(O)c3c(c(O)c1C2=O)C[C@@](O)(C(=O)CO)C[C@@H]3O[C@H]1C[C@H](N)[C@H](O)[C@H](C)O1 [doxorubicin]
[1]; MCF7 or MCF10A cells
  TRIM37 expression: no increase
[1]; MDA MB 468, HCC1806 and MDA MB 231 cells
  TRIM37 expression: dose- and time-dependent upregulation
[2]
  TRIM37 in xenograft tumors: upregulated TRIM37
[2]; listed as dox
  TRIM37 in xenograft tumors: increased TRIM37 level
[3]
  tumor growth: significantly attenuated

From patent publication US20230270881A1, “ONCOGENIC TRIM37 IS A TARGETABLE EPIGENETIC DRIVER OF METASTASIS AND LINKS CHEMORESISTANCE AND METASTATIC FATE IN TRIPLE-NEGATIVE BREAST CANCER” (University of Virginia Patent Foundation, priority 2020, published 2023)
